From patent publication US20230234943A1, “TREX1 INHIBITORS AND USES THEREOF” (Tempest Therapeutics, Inc., priority 2020, published 2023)

molecular target: T1, Human TREX1 enzyme (amino acids 1-242) (Homo sapiens, UniProt Q9NSU2); experiment: Human TREX1 enzymatic assay with dsDNA native oligonucleotide (Picogreen fluorescence); assay type: biochemical; conditions: 2 mM dithiothreitol in assay buffer; 50 nM dsDNA oligonucleotide; 30 min preincubation at 25° C.; read-out: TREX1/Human + DTT IC50 AVG
T1 construct: Human TREX1 enzyme (amino acids 1-242)
T1 sequence (Q9NSU2 1-242): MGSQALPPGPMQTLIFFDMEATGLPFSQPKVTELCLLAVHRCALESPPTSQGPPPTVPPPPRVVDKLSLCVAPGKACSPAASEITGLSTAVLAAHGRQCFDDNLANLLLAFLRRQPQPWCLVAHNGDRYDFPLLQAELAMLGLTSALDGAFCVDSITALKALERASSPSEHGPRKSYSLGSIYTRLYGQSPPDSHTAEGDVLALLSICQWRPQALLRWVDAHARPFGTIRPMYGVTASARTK
Method in brief: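 Remaining dsDNA quantified by Picogreen fluorescence after EDTA quench, with no-enzyme and DMSO wells as controls. Reactions used 50 nM annealed oligonucleotide for 5–15 min at 25 °C, after a 30 min compound–enzyme preincubation (0.8–0.16 nM TREX1; 2% DMSO; pH 7.7 Tris, 5 mM MgCl2).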

Compound	IC50
COc1cc(-c2nc3cc(N4CCN(C(=O)c5cc(C)cc(C)c5)CC4)ccc3[nH]2)cc(O)c1O [Example 125, (4-(2-(3,4-dihydroxy-5-methoxyphenyl)-1H-benzo[d]imidazol-5-yl)piperazin-1-yl)(3,5-dimethylphenyl)methanone]	> 100 µM
COc1cc(-c2nc3cc(N4CCN(C(=O)c5cccc(C(C)(C)C)c5)CC4)ccc3[nH]2)cc(O)c1O [Example 134, (3-(tert-butyl)phenyl)(4-(2-(3,4-dihydroxy-5-methoxyphenyl)-1H-benzo[d]imidazol-5-yl)piperazin-1-yl)methanone]	> 100 µM
COc1cc(-c2nc3ccccc3n2-c2ccccc2)c(F)c(O)c1O [Example 331, 3-fluoro-6-methoxy-4-(l-phenyl-1H-1,3-benzodiazol-2-yl)benzene-1,2-diol]	1 to 10 µM
COc1cc(-c2nc3ccccc3n2C2CC2)c(C)c(O)c1O [Example 324, 4-(1-cyclopropyl-1H-benzo[d]imidazol-2-yl)-6-methoxy-3-methylbenzene-1,2-diol]	1 to 10 µM
COc1cc(-c2nc3cc(N(C)C(C)=O)ccc3n2C2(C)COC2)c(F)c(O)c1O [Example 195]	0.1 to 1 µM
COc1c(C)c(-c2nc3ccccc3[nH]2)cc(O)c1O [Example 16, 5-(1H-benzo[d]imidazol-2-yl)-3-methoxy-4-methylbenzene-1,2-diol]	> 100 µM
COc1cc(-c2nc3ccccc3n2C2COC2)c(C(F)(F)F)c(O)c1O [Example 130, 6-methoxy-4-(1-(oxetan-3-yl)-1H-benzo[d]imidazol-2-yl)-3-(trifluoromethyl)benzene-1,2-diol]	10 to 100 µM
COc1cc(-c2nc3ccc(C(=O)NC4CCC(F)(F)CC4)cc3n2C2(C)COC2)c(F)c(O)c1O [Example 256, N-(4,4-difluorocyclohexyl)-2-(2-fluoro-3,4-dihydroxy-5-methoxyphenyl)-1-(3-methyloxetan-3-yl)-1H-benzo[d]imidazole-6-carboxamide]	≤ 0.1 µM
CCCCN1CCN(c2ccc3[nH]c(-c4cc(O)c(O)c(OC)c4)nc3c2)CC1 [Example 65, 5-(5-(4-butylpiperazin-1-yl)-1H-benzo[d]imidazol-2-yl)-3-methoxybenzene-1,2-diol]	> 100 µM
COc1cc(-c2nc3cc(N4CCOCC4)ccc3[nH]2)cc(O)c1O [Example 25, 3-methoxy-5-(5-morpholino-1H-benzo[d]imidazol-2-yl)benzene-1,2-diol]	> 100 µM
CNC(=O)c1ccc2nc(-c3cc(OC)c(O)c(O)c3F)n(C3CCC3)c2c1 [Example 309, 1-cyclobutyl-2-(2-fluoro-3,4-dihydroxy-5-methoxyphenyl)-N-methyl-1H-benzo[d]imidazole-6-carboxamide]	≤ 0.1 µM
COc1cc(-c2nc3ccccc3n2CC2CCC2)c(C)c(O)c1O [Example 239, 4-(1-(cyclobutylmethyl)-1H-benzo[d]imidazol-2-yl)-6-methoxy-3-methylbenzene-1,2-diol]	> 100 µM
COc1cc(-c2nc3cc(NC(C)=O)ncc3n2C2(C)COC2)c(F)c(O)c1O [Example 237, N-(2-(2-fluoro-3,4-dihydroxy-5-methoxyphenyl)-3-(3-methyloxetan-3-yl)-3H-imidazo[4,5-c]pyridin-6-yl)acetamide]	≤ 0.1 µM
COc1cc(-c2nc3c(Cl)c(Cl)ccc3[nH]2)c(F)c(O)c1O [Example 202, 4-(6,7-dichloro-1H/benzo[d]imidazol-2-yl)-3-fluoro-6-methoxybenzene-1,2-diol]	> 100 µM
CCNC(=O)c1ccc2nc(-c3cc(OC)c(O)c(O)c3F)n(C34CC(C3)C4)c2c1 [Example 264, 1-(bicyclo[1.1.1]pentan-1-yl)-N-ethyl-2-(2-fluoro-3,4-dihydroxy-5-methoxyphenyl)-1H-benzo[d]imidazole-6-carboxamide]	≤ 0.1 µM
CNC(=O)c1ccc2nc(-c3cc(OC)c(O)c(O)c3F)n(C3(C)COC3)c2c1 [Example 212, 2-(2-fluoro-3,4-dihydroxy-5-methoxyphenyl)-N-methyl-1-(3-methyloxetan-3-yl)-1H-benzo[d]imidazole-6-carboxamide]	≤ 0.1 µM
COc1cc(-c2nc3cc(N4CCC4)ccc3[nH]2)c(C)c(O)c1O [Example 189, 4-(5-(azetidin-1-yl)-1H-benzo[d]imidazol-2-yl)-6-methoxy-3-methylbenzene-1,2-diol]	1 to 10 µM
COc1cc(-c2nc3ccncc3[nH]2)c(C)c(O)c1O [Example 78, 4-(3H-imidazo[4,5-c]pyridin-2-yl)-6-methoxy-3-methylbenzene-1,2-diol]	10 to 100 µM
COc1cc(-c2nc3ccccc3n2C)cc(O)c1O [Example 10, 3-methoxy-5-(1-methyl-1H-benzo[d]imidazol-2-yl)benzene-1,2-diol]	> 100 µM

Compound	IC50
COc1cc(-c2nc3cc(F)ccc3[nH]2)c(F)c(O)c1O [Example 231, 3-fluoro-4-(5-fluoro-1H-benzo[d]imidazol-2-yl)-6-methoxybenzene-1,2-diol]	> 100 µM
COc1cc(-c2nc3ccc(C(=O)Nc4ccon4)cc3n2C2(C)COC2)c(F)c(O)c1O [Example 258, 2-(2-fluoro-3,4-dihydroxy-5-methoxyphenyl)-1-(3-methyloxetan-3-yl)-N-(1,2-oxazol-3-yl)-1H-1,3-benzodiazole-6-carboxamide]	≤ 0.1 µM
COc1cc(-c2nc3cc(N4CCOCC4=O)ccc3n2C2(C)COC2)c(F)c(O)c1O [Example 275, 4-(2-(2-fluoro-3,4-dihydroxy-5-methoxyphenyl)-1-(3-methyloxetan-3-yl)-1H-benzo[d]imidazol-5-yl)morpholin-3-one]	0.1 to 1 µM
COc1cc(-c2nc3cc(N4CCN(C(=O)c5ccc(-c6ccccc6)cc5)CC4)ccc3[nH]2)cc(O)c1O [Example 112, [1,1′-biphenyl]-4-yl(4-(2-(3,4-dihydroxy-5-methoxyphenyl)-1H-benzo[d]imidazol-5-yl)piperazin-1-yl)methanone]	> 100 µM
COc1cc(-c2nc3nc(N4CCOCC4)ccc3n2C2CCOC2)cc(O)c1O (stereo not shown) [Example 287, 3-methoxy-5-(5-morpholino-1-(tetrahydrofuran-3-yl)-1H-imidazo[4,5-b]pyridin-2-yl)benzene-1,2-diol]	> 100 µM
COc1c(O)c(O)cc(-c2nc3cc(N4CCC4)ccc3n2C2COC2)c1F [Example 298, 5-(5-(azetidin-1-yl)-1-(oxetan-3-yl)-1H-benzo[d]imidazol-2-yl)-4-fluoro-3-methoxybenzene-1,2-diol]	1 to 10 µM
COc1cc(-c2nc3cc(N4CCN(C(=O)c5cccc(C(F)(F)F)c5)CC4)ccc3[nH]2)cc(O)c1O [Example 103, (4-(2-(3,4-dihydroxy-5-methoxyphenyl)-1H-benzo[d]imidazol-5-yl)piperazin-1-yl)(3-(trifluoromethyl)phenyl)methanone]	> 100 µM
COc1cc(-c2nc3cc(N4CCC4)cc(C)c3[nH]2)cc(O)c1O [Example 293, 5-(5-(azetidin-1-yl)-7-methyl-1H-benzo[d]imidazol-2-yl)-3-methoxybenzene-1,2-diol]	> 100 µM
COc1cc(-c2nc3cc(N4CCN(C(C)C)CC4)ccc3[nH]2)cc(O)c1O [Example 72, 5-(5-(4-isopropylpiperazin-1-yl)-1H-benzo[d]imidazol-2-yl)-3-methoxybenzene-1,2-diol]	10 to 100 µM
COc1cc(-c2nc3cc(N4[C@@H]5CC[C@H]4CN(C(=O)c4ccccc4)C5)ccc3[nH]2)cc(O)c1O [Example 135, ((1R,5S)-8-(2-(3,4-dihydroxy-5-methoxyphenyl)-1H-benzo[d]imidazol-5-yl)-3,8-diazabicyclo[3.2.1]octan-3-yl)(phenyl)methanone]	1 to 10 µM
COc1cc(-c2nc3cc(N4CC(O)C4)ccc3n2C2COC2)c(F)c(O)c1O [Example 294, 3-fluoro-4-(5-(3-hydroxyazetidin-1-yl)-1-(oxetan-3-yl)-1H-benzo[d]imidazol-2-yl)-6-methoxybenzene-1,2-diol]	1 to 10 µM
COCCn1c(-c2cc(O)c(O)c(OC)c2)nc2ccccc21 [Example 15, 3-methoxy-5-(1-(2-methoxyethyl)-1H-benzo[d]imidazol-2-yl)benzene-1,2-diol]	> 100 µM
COc1cc(-c2nc3ccc(NC(=O)c4ccc(F)cc4)cc3n2C2(C)COC2)c(F)c(O)c1O [Example 305, 4-fluoro-N-(2-(2-fluoro-3,4-dihydroxy-5-methoxyphenyl)-1-(3-methyloxetan-3-yl)-1H-benzo[d]imidazol-6-yl)benzamide]	≤ 0.1 µM
COc1cc(-c2nc3ccccc3n2C2(C)COC2)c(C)c(O)c1O [Example 169, 6-methoxy-3-methyl-4-(1-(3-methyloxetan-3-yl)-1H-benzo[d]imidazol-2-yl)benzene-1,2-diol]	0.1 to 1 µM
COc1cc(-c2nc3cc(N4CC5(CNC5)C4)ccc3[nH]2)cc(O)c1O [Example 142, 5-(5-(2,6-diazaspiro[3.3]heptan-2-yl)-1H-benzo[d]imidazol-2-yl)-3-methoxybenzene-1,2-diol]	> 100 µM
COc1cc(-c2nc3cc(N4CCC4)ccc3n2C2CCC2)c(C)c(O)c1O [Example 193]	0.1 to 1 µM
COc1cc(-c2nc3cc(N4CC(NS(C)(=O)=O)C4)ccc3[nH]2)cc(O)c1O [Example 146, N-(1-(2-(3,4-dihydroxy-5-methoxyphenyl)-1H-benzo[d]imidazol-5-yl)azetidin-3-yl)methanesulfonamide]	1 to 10 µM
COc1cc(-c2nc3ccccc3[nH]2)c(C)c(O)c1O [Example 17, 4-(1H-benzo[d]imidazol-2-yl)-6-methoxy-3-methylbenzene-1,2-diol]	> 100 µM
